According to ChEMBL document CHEMBL3352612, “Design, synthesis, and biological activities of 1-aryl-1,4-diazepan-2-one derivatives as novel triple reuptake inhibitors” (Bioorg Med Chem Lett, 2014):
One block for each compound: values may come before it. Activity calls are given as the source filed them. The rule behind the calls is not given here.

Key:
[1] = biological target: Sodium-dependent dopamine transporter (Homo sapiens, UniProt Q01959); assay: Inhibition of [3H]dopamine reuptake at human DAT expressed in CHO cells after 60 mins by scintillation counting; format: cell-based
Cytochrome P450 2D6 = Cytochrome P450 2D6 (Homo sapiens, UniProt P10635); assay: Inhibition of CYP2D6 (unknown origin); format: ADME
[2] = biological target: Voltage-gated inwardly rectifying potassium channel KCNH2 (Homo sapiens, UniProt Q12809); assay: Inhibition of human ERG
[3] = biological target: Sodium-dependent noradrenaline transporter (Homo sapiens, UniProt P23975); assay: Inhibition of [3H]norepinephrine reuptake at human NET expressed in CHO cells after 45 mins by scintillation counting; format: cell-based
[4] = biological target: Sodium-dependent serotonin transporter (Homo sapiens, UniProt P31645); assay: Inhibition of [3H]serotonin reuptake at human SERT expressed in CHO cells after 20 mins by scintillation counting; format: cell-based
Mus musculus [5] = assay: Increase in extracellular 5-HT level in ICR mouse prefrontal cortex at 3 mg/kg, po measured at 120 mins post dose relative to basal level by microdialysis; format: functional
Mus musculus [6] = assay: Antidepressant activity in ICR mouse assessed as immobility time at 3 mg/kg, po measured 60 mins post dose by tail-suspension test; format: functional, organism-based; parameters: dose 3 mg/kg
Mus musculus [7] = assay: Antidepressant activity in po dosed ICR mouse assessed as immobility time measured 60 mins post dose by tail-suspension test; format: functional, organism-based
Mus musculus [8] = assay: Increase in extracellular norepinephrine level in ICR mouse prefrontal cortex at 3 mg/kg, po measured at 120 mins post dose relative to basal level by microdialysis; format: functional
Mus musculus [9] = assay: Increase in extracellular dopamine level in ICR mouse prefrontal cortex at 3 mg/kg, po measured at 120 mins post dose relative to basal level by microdialysis; format: functional

Chain of Sodium-dependent dopamine transporter (Q01959 whole entry): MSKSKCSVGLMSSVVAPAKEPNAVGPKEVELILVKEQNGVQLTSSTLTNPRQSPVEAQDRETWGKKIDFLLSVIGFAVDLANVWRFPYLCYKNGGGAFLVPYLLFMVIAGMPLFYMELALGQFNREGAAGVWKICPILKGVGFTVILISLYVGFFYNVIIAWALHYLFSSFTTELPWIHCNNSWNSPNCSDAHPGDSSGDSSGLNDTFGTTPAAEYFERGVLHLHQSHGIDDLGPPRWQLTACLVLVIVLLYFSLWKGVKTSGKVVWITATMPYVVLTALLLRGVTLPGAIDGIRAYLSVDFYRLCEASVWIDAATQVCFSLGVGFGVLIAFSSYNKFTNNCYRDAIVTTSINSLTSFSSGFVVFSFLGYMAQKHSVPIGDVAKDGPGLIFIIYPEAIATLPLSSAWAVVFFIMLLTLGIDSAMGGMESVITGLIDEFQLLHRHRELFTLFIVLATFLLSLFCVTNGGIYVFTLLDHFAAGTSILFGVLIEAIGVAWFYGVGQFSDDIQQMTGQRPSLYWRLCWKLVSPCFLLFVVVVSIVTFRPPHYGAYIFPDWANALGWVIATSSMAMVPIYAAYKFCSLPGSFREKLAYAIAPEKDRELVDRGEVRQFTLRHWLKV
Chain of Voltage-gated inwardly rectifying potassium channel KCNH2 (Q12809 whole entry): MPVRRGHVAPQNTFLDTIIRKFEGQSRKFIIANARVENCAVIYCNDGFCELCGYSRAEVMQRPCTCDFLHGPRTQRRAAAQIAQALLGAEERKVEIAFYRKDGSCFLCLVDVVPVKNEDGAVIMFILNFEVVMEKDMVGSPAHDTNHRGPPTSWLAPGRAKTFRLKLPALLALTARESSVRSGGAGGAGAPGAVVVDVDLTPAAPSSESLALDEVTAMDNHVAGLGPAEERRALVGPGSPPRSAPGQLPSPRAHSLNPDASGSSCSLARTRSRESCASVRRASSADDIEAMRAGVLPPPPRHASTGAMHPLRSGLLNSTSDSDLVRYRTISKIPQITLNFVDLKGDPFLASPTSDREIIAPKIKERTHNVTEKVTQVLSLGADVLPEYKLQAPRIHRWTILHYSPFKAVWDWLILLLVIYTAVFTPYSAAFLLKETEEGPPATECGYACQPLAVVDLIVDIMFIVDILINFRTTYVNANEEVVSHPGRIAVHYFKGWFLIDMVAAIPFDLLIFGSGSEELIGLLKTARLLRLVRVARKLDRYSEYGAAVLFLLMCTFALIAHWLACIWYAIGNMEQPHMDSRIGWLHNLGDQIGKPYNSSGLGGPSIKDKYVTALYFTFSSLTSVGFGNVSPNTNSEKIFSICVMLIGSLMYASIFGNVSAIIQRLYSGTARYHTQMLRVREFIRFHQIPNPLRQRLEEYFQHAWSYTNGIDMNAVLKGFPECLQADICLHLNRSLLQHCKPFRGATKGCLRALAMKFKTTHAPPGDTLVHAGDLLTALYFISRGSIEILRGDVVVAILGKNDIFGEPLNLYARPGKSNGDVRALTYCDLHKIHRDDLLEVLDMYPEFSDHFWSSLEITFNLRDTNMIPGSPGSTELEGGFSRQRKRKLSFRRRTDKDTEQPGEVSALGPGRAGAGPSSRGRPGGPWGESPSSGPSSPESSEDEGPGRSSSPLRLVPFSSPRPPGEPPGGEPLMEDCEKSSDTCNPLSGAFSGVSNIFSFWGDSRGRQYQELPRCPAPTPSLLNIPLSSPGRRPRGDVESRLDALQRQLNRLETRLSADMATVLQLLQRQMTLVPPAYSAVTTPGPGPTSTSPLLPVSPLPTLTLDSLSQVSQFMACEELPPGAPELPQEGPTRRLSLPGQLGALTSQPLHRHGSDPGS
Chain of Cytochrome P450 2D6 (P10635 whole entry): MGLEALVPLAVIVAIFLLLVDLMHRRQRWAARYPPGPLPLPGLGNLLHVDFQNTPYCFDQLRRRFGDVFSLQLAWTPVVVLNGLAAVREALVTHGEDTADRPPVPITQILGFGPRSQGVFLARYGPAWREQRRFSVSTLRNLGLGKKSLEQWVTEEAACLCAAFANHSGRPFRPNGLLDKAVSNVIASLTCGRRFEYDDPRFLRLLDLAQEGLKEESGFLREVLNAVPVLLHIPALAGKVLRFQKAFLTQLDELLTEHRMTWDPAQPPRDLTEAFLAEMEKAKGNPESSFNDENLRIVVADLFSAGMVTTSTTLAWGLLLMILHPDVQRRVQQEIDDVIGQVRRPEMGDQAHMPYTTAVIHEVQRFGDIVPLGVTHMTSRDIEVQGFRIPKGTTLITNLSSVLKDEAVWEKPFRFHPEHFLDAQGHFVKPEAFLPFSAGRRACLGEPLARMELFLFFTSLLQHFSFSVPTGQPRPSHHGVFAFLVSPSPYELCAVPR
Chain of Sodium-dependent noradrenaline transporter (P23975 whole entry): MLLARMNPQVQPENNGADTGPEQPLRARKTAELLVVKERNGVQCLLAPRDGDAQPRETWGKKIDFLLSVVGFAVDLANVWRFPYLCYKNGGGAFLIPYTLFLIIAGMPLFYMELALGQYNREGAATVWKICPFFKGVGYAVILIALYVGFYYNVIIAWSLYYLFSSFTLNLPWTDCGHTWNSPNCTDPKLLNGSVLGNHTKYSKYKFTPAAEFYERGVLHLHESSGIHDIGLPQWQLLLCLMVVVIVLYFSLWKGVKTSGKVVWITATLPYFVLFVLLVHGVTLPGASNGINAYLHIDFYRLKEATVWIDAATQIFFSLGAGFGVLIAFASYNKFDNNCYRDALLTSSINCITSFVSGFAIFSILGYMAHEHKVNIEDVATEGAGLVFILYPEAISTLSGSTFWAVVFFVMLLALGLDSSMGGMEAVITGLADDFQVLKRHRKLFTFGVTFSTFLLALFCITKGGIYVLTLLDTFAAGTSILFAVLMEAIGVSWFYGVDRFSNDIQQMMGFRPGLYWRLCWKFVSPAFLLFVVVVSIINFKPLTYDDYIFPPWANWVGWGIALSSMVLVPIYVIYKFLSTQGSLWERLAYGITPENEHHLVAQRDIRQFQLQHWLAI
Chain of Sodium-dependent serotonin transporter (P31645 whole entry): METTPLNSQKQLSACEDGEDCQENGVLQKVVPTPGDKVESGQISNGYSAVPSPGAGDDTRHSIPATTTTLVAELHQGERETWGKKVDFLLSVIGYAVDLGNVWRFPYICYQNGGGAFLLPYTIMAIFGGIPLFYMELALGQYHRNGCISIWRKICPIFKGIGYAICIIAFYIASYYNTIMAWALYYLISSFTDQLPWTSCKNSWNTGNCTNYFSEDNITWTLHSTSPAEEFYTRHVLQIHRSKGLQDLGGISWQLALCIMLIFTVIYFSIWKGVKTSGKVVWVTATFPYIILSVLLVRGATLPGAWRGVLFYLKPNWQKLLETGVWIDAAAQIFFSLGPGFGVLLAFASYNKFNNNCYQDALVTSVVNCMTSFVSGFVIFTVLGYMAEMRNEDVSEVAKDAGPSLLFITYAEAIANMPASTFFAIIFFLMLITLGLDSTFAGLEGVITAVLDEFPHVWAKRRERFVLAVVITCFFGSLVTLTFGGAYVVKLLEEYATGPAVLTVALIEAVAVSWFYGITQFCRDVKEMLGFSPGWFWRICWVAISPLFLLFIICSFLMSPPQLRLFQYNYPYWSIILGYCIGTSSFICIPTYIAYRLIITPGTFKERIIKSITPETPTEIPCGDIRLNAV

Structure (SMILES): Cl.O=C1CNCCCN1c1ccc(Cl)c(Cl)c1
IC50 [1]: 420 nM | inhibition (INH) (Cytochrome P450 2D6): Not Active | inhibition (INH) [2]: Not Active | IC50 [3]: 13 nM | IC50 [4]: 50 nM

Structure (SMILES): O=C1CNCC(F)(F)CN1c1ccc(Cl)c(Cl)c1
IC50 [1]: 8100 nM | IC50 [3]: 2000 nM | IC50 [4]: 1300 nM

Structure (SMILES): O=C1CNCC2(CC2)CN1c1ccc(Cl)c(Cl)c1
IC50 [1]: 120 nM | IC50 [3]: 82 nM | IC50 [4]: 2200 nM

Structure (SMILES): CC1CNCC(=O)N(c2ccc(Cl)c(Cl)c2)C1 (racemic)
IC50 [1]: 4000 nM | IC50 [3]: 260 nM | IC50 [4]: 2200 nM

Structure (SMILES): CC1NCCCN(c2ccc(Cl)c(Cl)c2)C1=O.Cl (racemic)
IC50 [1]: 470 nM | inhibition (INH) (Cytochrome P450 2D6): Not Active | inhibition (INH) [2]: Not Active | IC50 [3]: 8 nM | IC50 [4]: 530 nM

Structure (SMILES): CC1NCCCN(c2ccc3ccccc3c2)C1=O.Cl (racemic)
IC50 [1]: 340 nM | inhibition (INH) (Cytochrome P450 2D6): Not Active | inhibition (INH) [2]: Not Active | IC50 [3]: 14 nM | IC50 [4]: 200 nM

Now from value to compound, other results behind:

IC50 [1]: > 10000 nM | inhibition (INH) (Cytochrome P450 2D6): Not Active | IC50 [3]: 3200 nM | IC50 [4]: 5500 nM
Structure (SMILES): CN1CCCN(c2ccc(Cl)c(Cl)c2)C(=O)C1.Cl
inhibition (INH) [2]: Not Active

IC50 [1]: 160 nM | inhibition (INH) (Cytochrome P450 2D6): Not Active | IC50 [3]: 3.8 nM | IC50 [4]: 83 nM
Structure (SMILES): C[C@@H]1NCCCN(c2ccc3ccccc3c2)C1=O.Cl
inhibition (INH) [2]: Not Active | Activity (Mus musculus [5]): 210% | Activity (Mus musculus [6]): Active | Activity (Mus musculus [7]): Dose-dependent effect | Activity (Mus musculus [8]): 750% | Activity (Mus musculus [9]): 640%

IC50 [1]: > 10000 nM | IC50 [3]: 570 nM | IC50 [4]: 260 nM
Structure (SMILES): C[C@H]1NCCCN(c2ccc3ccccc3c2)C1=O

IC50 [1]: 4500 nM | IC50 [3]: 660 nM | IC50 [4]: 1900 nM
Structure (SMILES): CC1CCNCC(=O)N1c1ccc(Cl)c(Cl)c1 (racemic)

IC50 [1]: > 10000 nM | inhibition (INH) (Cytochrome P450 2D6): Not Active | IC50 [3]: 1700 nM | IC50 [4]: 4300 nM
Structure (SMILES): CC1CCN(c2ccc(Cl)c(Cl)c2)C(=O)CN1.Cl (racemic)
inhibition (INH) [2]: Not Active

IC50 [1]: 190 nM | inhibition (INH) (Cytochrome P450 2D6): Not Active | IC50 [3]: 7.7 nM | IC50 [4]: 570 nM
Structure (SMILES): CCC1NCCCN(c2ccc(Cl)c(Cl)c2)C1=O.Cl (racemic)
inhibition (INH) [2]: Not Active

IC50 [1]: 130 nM | inhibition (INH) (Cytochrome P450 2D6): Not Active | IC50 [3]: 9.2 nM | IC50 [4]: 88 nM
Structure (SMILES): CCC1NCCCN(c2ccc3ccccc3c2)C1=O.Cl (racemic)
inhibition (INH) [2]: Not Active
